Measured values as given in patent publication US4524146A, “Certain -2-heterocycle substituted pyrazoloquinolines” (Ciba-Geigy Corporation, priority 1982, dated 1985).

Experiments:
benzodiazepine receptor [1] = assay: in vitro benzodiazepine receptor binding assay (inhibition of specific binding of 2 nM tritiated diazepam); conditions: membranes from rat fore-brain, 0°-5°, 30 minutes, pH7.5
Experimental: The benzodiazepine receptor binding properties indicative of the nervous system regulatory activity of said new compounds are determined in the receptor binding assay in vitro, e.g. as described in Nature 266, 732 (1977) or Proc. Nat. Acad. Sci. USA 74, 3805 (1977). Diazepam binds specifically and with high affinity to crude synaptosomal membrane preparations from rat fore-brain. This binding is inhibited by other anxiolytic compounds. When tritiated diazepem is used, the interaction of other drugs with said receptor can be readily assessed thus: membranes from rat fore-brain are incubated at 0°-5° for 30 minutes with 2 nM tritiated diazepam and various concentrations of the test substance in a buffer medium maintained at pH7.5. Solutions of the various concentrations of test substances are prepared by dilution of a 4.2 mM stock solution in dimethylacetamide-ethanol (1:10) with 50 mM pH7.5 Tris-HCl buffer. The membranes, containing the receptors with various amounts of tritiated diazepam, are filtered onto glass fiber filters, which are then analyzed in a liquid scintillation counter. The concentration of the compounds of this invention, required to inhibit the specific binding of 2 nM of tritiated diazepam by 50%, i.e. the IC50, is determined graphically.

benzodiazepine receptor [2] = assay: in vivo benzodiazepine receptor binding (3H-flunitrazepam); parameters: species or system mice or rats; conditions: dose of about 30 mg/kg i.p.
Experimental: In vivo benzodiazepine receptor binding is determined essentially as described in Eur. J. Pharmacol. 48, 213 (1978) and Nature 275, 551 (1978).
Test compounds in a corn starch vehicle are administered orally or intraperitioneally to mice or rats. Thirty minutes later, 3H-flunitrazepam(2 nmoles/Kg in saline) is injected into the tail vein, and the animals are sacrificed 20 minutes after injection of the flunitrazepam. The brains are then assayed by determining radioactivity in a liquid scintillation counter for binding of the radioligand to the receptors. A decrease in the binding of 3H-flimotrazepam in the drug-treated animals (as compared with the binding observed in animals treated with vehicle alone) is indicative of benzodiazepine receptor binding by the test compound.

| IC50 (benzodiazepine receptor [1]) | SMILES | inhibition of flunitrazepam binding in vivo (benzodiazepine receptor [2]) |
| --- | --- | --- |
| ~6 nM | O=c1c2c[nH]c3ccccc3c-2nn1-c1ncccn1 [Example 1, 2-(2-pyrimidyl)-pyrazolo[4,3-c]quinolin-3(5H)-one] |  |
| ~2 nM | O=c1c2c[nH]c3ccc(F)cc3c-2nn1-c1ncccn1 [Example 2, 8-fluoro-2-(2-pyrimidyl)-pyrazolo[4,3-c]quinolin-3(5H)-one] |  |
| ~0.3 nM | O=c1c2c[nH]c3ccccc3c-2nn1-c1nccs1 [Example 4, 2-(2-thiazolyl)-pyrazolo[4,3-c]quinolin-3(5H)-one] | inhibits flunitrazepam binding in vivo |
